Data on one compound can be found in patent US20110257146A1, “Method of Treating Kcnq Related Disorders Using Organozinc Compounds” (The johns Hopkins University, priority 2006, published 2011).

For data set [1], the target named is T1, human ether-a-go-go related gene (hERG) (Homo sapiens, UniProt Q12809).
T1 construct: expressed in transfected cells
It is filed as cell-based. As for the experimental part: (§1) Cell culture and transient transfection—Chinese Hamster Ovary (CHO) cells were grown in 50/50 DMEM/F12 (Cellgro) with 10% FBS (Gibco), 100 U/ml penicillin (Cellgro), 100 μg/ml streptomycin (Cellgro) and 2 mM L-glutamine (Gibco). At 24 hours before transfection, cells were split and plated in 60 mm dishes and were transfected with Lipofectamine2000™ reagent (Invitrogen) according to the manufacturer's instruction. At 24 hours after transfection, cells were split and re-plated onto coverslips coated with poly-L-lysine (Sigma). Plasmid expressing CD4 cDNA as a marker was cotransfected with the channel cDNAs of hKCNQ1 (from Dr. Michael Sanguinetti), hKCNQ4 (from Dr. Vitya Vardanyan), rKCNQ2, rKCNQ3, and hKCNQ5 (from Drs. David McKinnon, Mark Shapiro, and Thomas Jentsch). Prior to recording, anti-CD4 Dynabeads (Dynal. Biotech. Inc.) were added into the medium to allow for identification of the transfected cells. Stable lines expressing Kv2.1, hERG, and Kv4.2 were generated by standard protocols using pcDNA3.1 and maintained at complete medium supplemented with 500 μg/ml G418. […]
(§2) Electrophysiological Recording—Standard whole-cell recording was used. […] Current and voltage were recorded using an Axopatch-200A amplifier, filtered at 1 kHz and digitized using a DigiData 1322A with pClamp 9.2 software (Axon Instruments, Foster City, Calif.). […]

In data set [2] the target is T2, Kv4.2 A-type potassium channel (Homo sapiens, UniProt Q9NZV8).
T2 construct: expressed in transfected cells
T2 sequence (Q9NZV8 whole entry): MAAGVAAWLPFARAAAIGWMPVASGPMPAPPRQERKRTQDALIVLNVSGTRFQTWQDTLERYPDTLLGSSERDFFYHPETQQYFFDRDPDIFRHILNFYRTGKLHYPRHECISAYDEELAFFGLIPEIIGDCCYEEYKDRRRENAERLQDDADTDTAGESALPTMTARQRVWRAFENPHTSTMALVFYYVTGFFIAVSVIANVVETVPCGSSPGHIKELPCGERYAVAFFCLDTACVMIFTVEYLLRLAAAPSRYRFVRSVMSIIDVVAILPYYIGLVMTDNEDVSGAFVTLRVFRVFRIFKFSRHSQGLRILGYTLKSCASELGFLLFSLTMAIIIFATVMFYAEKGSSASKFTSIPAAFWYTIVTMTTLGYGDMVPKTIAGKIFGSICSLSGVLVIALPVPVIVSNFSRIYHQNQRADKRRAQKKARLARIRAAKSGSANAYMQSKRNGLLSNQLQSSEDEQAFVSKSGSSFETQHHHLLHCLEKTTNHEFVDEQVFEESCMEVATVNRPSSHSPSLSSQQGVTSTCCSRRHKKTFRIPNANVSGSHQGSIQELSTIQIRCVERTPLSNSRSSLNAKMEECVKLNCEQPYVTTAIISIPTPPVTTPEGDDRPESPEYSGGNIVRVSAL
Nature of the data set: Channel activity in Kv4.2 stable line. It is filed as cell-based. The method, then:
as §1, §2

The next data set concerns the target T3, N-type calcium channel (Homo sapiens, UniProt Q00975).
T3 construct: expressed in transfected cells; Diane Lipscombe and David Yue
The experiment in a line: Channel activity in N-type calcium channel stable line. It is filed as cell-based. The method, then:
as §1, §2

The target of a further data set is T4, KCNQ2 (W236L) (Rattus norvegicus, UniProt O88943, W236L).
T4 construct: expressed in transfected cells
Nature of the data set: Whole-cell recording of KCNQ2 (W236L) mutant. It is filed as cell-based. Conditions: 2.5 μM ZnPy, −30 mV or +50 mV. As for the experimental part:
FIG. 8. Differential modulatory sites on KCNQ channel by ZnPy and retigabine. A. Left Panel. Representative KCNQ2 current was recorded with intracellular pipet solution supplemented with 10 μM ZnPy. The overlapping external application of ZnPy is as shown. Right Panel. G-V curves at different indicated recording times (0 to 12 minutes) upon establishing stable seal are shown. The intracellular perfusion (with or without EGTA) was first calibrated by using compatible molecular weight dye. […] The levels of current potentiation at +50 mV and −30 mV were calculated by Idrug/Icontrol, and shown as indicated (n≧4, *p<0.001).
(§3) Mutagenesis—Starting from KCNQ cDNAs, the KCNQ2 point mutants were constructed by recombinant PCR and verified by sequencing.
Electrophysiological Recording—Standard whole-cell recording was used. Pipettes were pulled from borosilicate glass capillaries (TW150-4, World Precision Instruments, Sarasota, Fla.). When filled with the intracellular solution, the pipettes have resistances of […]. During the recording, constant perfusion of extracellular solution was maintained using a BPS perfusion system (ALA, Westbury, N.Y.). […] Current and voltage were recorded using an Axopatch-200A amplifier, filtered at 1 kHz and digitized using a DigiData 1322A with pClamp 9.2 software (Axon Instruments, Foster City, Calif.). […]

For another data set, the target named is T5, KCNQ2(L249A/L275A) (Rattus norvegicus, UniProt O88943, L249A/L275A).
T5 construct: expressed in transfected cells
Nature of the data set: Whole-cell recording of KCNQ2(L249A/L275A) mutant. It is filed as cell-based.
Excerpt: (§4) FIG. 9. KCNQ2 point mutants selectively lose ZnPy sensitivity. […] Each mutation site was indicated based on the predicted transmembrane regions. Dashed line indicates the potentiation level of wt KCNQ2 channel in the absence of ZnPy. […] C. Modeling of the S5-pore-S6 region of KCNQ2.
as §3
(§5) Electrophysiological Recording—Standard whole-cell recording was used. Pipettes were pulled from borosilicate glass capillaries (TW150-4, World Precision Instruments, Sarasota, Fla.). When filled with the intracellular solution, the pipettes have resistances of […]. During the recording, constant perfusion of extracellular solution was maintained using a BPS perfusion system (ALA, Westbury, N.Y.). Pipette solution contained (mM): KCl 145, MgCl2 1, EGTA 5, HEPES 10, MgATP 5 (pH 7.3); extracellular solution contained (mM): NaCl 140, KCl 3, CaCl2 2, MgCl2 1.5, HEPES 10, glucose 10 (pH 7.4). Current and voltage were recorded using an Axopatch-200A amplifier, filtered at 1 kHz and digitized using a DigiData 1322A with pClamp 9.2 software (Axon Instruments, Foster City, Calif.). Series resistance compensation was also used and set to 60-80%.

Another data set addresses T6, KCNQ2(Y284C) (Rattus norvegicus, UniProt O88943, Y284C).
T6 construct: expressed in transfected cells; host or cells: CHO cells, transient
Nature of the data set: Whole-cell recording of KCNQ2(Y284C) BFNC mutant in CHO cells. It is filed as cell-based. The settings on record: 10 μM ZnPy. The method, then:
FIG. 11. ZnPy effects on BFNC mutant channels expressed in CHO cells. A. whole-cell currents of KCNQ2(R207W), KCNQ2(Y284C), and KCNQ2(A306T) were recorded in the absence (left) and presence (right) of 10 μM ZnPy, Vh was −80 mV, in 10 mV voltage steps from −70 mV to +50 mV. B. a histogram plotting potentiation effects on KCNQ2 wild type (wt) and BFNC mutants (R207W, Y284C and […]) by ZnPy (filled box) and retigabine (open box) (n≧4, * p<0.001, ** p<0.05).
as §3
as §5, with “Series resistance compensation was also used and set to 60-80%.” left out

Another data set has as its target T7, KCNQ2 L249A (Rattus norvegicus, UniProt O88943, L249A).
T7 construct: expressed in transfected cells
The experiment in a line: Whole-cell recording of KCNQ2 L249A mutant. The class given is cell-based.
Excerpt: as §4, §3, §5

The subject of data set [3] is lymphocytic leukemia cells. Conditions: micromolar concentrations; cited from earlier work.

Entries after “also recorded” stand apart in the source; their conditions may differ.

T3 sequence (Q00975 whole entry): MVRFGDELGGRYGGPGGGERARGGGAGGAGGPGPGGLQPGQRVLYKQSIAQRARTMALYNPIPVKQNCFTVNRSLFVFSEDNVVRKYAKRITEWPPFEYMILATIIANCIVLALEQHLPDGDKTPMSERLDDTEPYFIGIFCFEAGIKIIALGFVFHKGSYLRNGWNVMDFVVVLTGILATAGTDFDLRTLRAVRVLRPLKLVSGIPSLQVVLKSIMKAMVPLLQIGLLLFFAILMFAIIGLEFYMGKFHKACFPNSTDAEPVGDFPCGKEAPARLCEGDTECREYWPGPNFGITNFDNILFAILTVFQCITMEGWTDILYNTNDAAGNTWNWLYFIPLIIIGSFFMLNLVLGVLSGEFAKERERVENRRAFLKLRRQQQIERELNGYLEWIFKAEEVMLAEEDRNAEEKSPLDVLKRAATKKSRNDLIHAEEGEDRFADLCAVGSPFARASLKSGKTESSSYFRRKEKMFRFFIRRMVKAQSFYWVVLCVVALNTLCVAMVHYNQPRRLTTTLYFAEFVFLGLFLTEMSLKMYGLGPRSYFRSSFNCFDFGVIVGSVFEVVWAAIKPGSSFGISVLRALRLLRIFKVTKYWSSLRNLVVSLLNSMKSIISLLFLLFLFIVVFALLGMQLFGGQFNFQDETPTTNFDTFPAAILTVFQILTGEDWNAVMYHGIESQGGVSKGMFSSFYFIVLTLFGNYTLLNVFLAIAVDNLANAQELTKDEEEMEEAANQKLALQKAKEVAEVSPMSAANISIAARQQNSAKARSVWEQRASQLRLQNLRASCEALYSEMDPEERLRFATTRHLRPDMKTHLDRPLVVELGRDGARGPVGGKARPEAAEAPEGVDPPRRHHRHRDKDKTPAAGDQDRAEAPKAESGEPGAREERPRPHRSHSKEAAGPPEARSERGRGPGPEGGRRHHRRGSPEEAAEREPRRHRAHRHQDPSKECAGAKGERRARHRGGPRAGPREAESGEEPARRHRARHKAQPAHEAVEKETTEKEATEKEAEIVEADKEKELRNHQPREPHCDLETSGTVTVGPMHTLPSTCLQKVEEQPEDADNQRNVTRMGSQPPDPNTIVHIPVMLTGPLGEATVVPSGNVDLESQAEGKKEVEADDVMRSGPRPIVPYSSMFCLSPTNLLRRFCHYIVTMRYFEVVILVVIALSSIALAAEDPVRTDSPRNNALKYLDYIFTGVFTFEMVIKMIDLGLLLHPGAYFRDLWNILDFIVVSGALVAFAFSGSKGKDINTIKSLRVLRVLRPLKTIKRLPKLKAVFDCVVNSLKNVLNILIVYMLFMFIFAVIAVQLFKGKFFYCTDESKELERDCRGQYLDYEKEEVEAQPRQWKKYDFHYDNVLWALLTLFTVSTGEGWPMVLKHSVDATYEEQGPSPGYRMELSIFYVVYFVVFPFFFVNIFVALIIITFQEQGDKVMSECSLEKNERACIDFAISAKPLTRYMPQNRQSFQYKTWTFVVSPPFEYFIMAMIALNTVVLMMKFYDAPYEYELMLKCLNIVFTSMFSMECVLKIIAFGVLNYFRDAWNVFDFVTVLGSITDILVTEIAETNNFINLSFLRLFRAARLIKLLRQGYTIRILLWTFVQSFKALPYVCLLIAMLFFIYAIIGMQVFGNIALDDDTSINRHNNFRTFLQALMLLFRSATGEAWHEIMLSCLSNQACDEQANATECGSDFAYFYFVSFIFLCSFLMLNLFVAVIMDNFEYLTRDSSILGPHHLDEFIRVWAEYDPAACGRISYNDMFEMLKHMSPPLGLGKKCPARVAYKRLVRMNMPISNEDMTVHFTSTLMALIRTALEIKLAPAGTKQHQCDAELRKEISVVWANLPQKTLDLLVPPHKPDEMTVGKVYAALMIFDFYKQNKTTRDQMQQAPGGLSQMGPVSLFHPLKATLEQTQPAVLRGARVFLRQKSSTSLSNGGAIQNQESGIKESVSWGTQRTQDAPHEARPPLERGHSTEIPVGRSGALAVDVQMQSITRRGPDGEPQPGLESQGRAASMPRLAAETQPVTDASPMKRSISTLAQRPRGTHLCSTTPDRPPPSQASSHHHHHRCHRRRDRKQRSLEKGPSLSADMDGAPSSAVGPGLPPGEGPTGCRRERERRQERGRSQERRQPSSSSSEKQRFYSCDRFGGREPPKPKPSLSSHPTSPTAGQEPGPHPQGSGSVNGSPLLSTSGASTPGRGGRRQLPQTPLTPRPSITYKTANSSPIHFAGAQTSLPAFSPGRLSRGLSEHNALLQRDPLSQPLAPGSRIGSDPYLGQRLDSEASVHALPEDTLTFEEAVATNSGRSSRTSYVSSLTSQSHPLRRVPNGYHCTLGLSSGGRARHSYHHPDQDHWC
T3 sequence (P54284 whole entry partner): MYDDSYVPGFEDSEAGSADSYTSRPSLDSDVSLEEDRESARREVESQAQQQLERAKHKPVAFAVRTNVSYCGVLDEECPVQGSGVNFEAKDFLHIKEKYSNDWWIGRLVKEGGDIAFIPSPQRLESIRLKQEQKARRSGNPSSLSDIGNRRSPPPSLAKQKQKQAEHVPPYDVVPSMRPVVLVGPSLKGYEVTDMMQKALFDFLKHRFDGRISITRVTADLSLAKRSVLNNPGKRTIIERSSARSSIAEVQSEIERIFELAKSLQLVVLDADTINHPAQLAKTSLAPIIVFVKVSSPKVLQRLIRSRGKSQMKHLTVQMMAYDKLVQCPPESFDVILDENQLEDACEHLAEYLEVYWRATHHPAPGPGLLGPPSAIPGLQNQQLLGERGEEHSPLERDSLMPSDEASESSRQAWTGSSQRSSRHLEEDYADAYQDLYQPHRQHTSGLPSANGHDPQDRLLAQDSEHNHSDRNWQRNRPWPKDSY
T3 sequence (P54289 25-946 partner limits assumed): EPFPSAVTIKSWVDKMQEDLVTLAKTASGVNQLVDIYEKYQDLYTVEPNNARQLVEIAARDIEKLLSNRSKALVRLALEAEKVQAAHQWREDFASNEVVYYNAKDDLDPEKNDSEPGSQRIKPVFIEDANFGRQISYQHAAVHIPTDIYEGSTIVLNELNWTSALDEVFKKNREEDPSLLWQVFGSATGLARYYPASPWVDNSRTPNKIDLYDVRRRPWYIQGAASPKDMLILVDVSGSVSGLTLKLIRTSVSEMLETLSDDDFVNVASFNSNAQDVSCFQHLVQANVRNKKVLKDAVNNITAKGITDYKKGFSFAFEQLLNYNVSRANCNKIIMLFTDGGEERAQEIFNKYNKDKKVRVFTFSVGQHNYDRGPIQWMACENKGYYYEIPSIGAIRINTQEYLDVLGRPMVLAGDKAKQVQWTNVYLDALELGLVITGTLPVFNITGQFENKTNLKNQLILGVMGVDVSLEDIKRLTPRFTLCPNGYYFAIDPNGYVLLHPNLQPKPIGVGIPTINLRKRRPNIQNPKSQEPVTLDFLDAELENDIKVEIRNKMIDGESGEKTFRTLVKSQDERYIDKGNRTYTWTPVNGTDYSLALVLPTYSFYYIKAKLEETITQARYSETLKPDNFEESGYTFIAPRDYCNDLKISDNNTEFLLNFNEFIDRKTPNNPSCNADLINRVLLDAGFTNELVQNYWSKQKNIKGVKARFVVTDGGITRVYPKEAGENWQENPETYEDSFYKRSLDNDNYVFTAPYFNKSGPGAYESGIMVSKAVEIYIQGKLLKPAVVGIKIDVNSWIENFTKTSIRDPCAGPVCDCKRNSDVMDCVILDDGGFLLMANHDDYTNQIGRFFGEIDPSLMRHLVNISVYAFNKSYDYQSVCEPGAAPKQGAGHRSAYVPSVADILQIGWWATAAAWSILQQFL
T3 sequence (P54289 947-1103 partner limits assumed): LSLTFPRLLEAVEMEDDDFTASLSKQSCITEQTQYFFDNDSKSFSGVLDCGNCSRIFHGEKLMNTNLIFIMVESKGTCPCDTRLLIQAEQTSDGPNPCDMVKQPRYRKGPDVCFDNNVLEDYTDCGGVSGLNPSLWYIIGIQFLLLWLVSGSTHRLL

As to `S=c1ccccn1[O][Zn][O]n1ccccc1=S` [ZnPy, Zinc Pyrithione], the “potentiation of channel activity” value (in data set [1]; in data set [2]; at N-type calcium channel) was “did not potentiate” each time. The “sensitivity of mutant to compound” value at KCNQ2 (W236L) is recorded as “comparable sensitivity to KCNQ2 wild type; also recorded: fully effective in potentiating”. Besides, the “V1/2 shift caused by ZnPy” value at KCNQ2(L249A/L275A) is “completely abolished the V1/2 shift”. Also, the “folds of current increase” value on KCNQ2(L249A/L275A) (+50 mV, ZnPy) came to 8.6±2.2 folds. Besides, the fold current increase result at KCNQ2(Y284C) is “more than 3 fold”. For the same compound, the “change in V1/2 caused by ZnPy” value at KCNQ2 L249A was “significant reduction on changes in V1/2”. Moreover, in data set [3], the “anti-apoptotic effect in vitro” value is “protected lymphocytic leukemia cells against colchicine-induced apoptosis”.
